Source: PMC3386958, “High-throughput Screening and Sensitized Bacteria Identify an M. tuberculosis Dihydrofolate Reductase Inhibitor with Whole Cell Activity” (PLoS ONE, 2012)
pIC50: −log10 of the molar value.

Target: T1, Mtb dihydrofolate reductase (DHFR) (Mycobacterium tuberculosis, UniProt P9WNX1)
T1 construct: gene folA; recombinant, 6-histidine tag at the amino terminus
T1 sequence (P9WNX1 1-161): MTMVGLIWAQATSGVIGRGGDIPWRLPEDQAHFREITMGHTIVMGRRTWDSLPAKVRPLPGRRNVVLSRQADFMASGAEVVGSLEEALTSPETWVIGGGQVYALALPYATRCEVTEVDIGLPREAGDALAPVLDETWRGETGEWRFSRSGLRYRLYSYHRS
Format: biochemical

## Nc1nc(N)c2cc(C(F)(F)F)ccc2n1 [NC00094221]
  pIC50: 7.65
